# Source: patent US20040242459A1 (priority 2001, published 2004)
# Marks after values point to notes of the source that are not given here.
# Legend:
# [1] = molecular target: T1, recombinant human PPARδ (GST-PPARδ) (Homo sapiens, UniProt Q03181); experiment: Scintillation Proximity Assay, displacement of [3H2]Compound B from PPARδ; assay type: binding; conditions: human PPARδ binding; read-out: IC50 (μM: SPA or BND) Delta
# T1 construct: The full length human cDNAs for PPARδ and PPARα were subcloned into the pGEX-KT expression vector; made in house; host or cells: E. coli
# T1 sequence (Q03181 1-441): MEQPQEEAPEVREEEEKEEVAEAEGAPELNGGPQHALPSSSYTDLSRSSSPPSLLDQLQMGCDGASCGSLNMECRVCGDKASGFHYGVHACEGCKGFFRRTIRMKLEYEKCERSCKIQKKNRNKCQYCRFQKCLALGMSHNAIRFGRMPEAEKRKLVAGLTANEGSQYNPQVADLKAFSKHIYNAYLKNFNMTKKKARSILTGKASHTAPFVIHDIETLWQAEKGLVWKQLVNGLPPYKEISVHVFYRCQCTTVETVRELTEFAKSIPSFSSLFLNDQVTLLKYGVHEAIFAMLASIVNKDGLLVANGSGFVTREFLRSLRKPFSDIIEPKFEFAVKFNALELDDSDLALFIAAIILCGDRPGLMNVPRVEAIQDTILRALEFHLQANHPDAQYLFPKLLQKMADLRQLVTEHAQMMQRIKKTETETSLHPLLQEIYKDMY
# Text: As an approach to identifying human PPAR agonists, a Scintillation Proximity Assay was used to characterize PPAR-γ, PPAR-δ, and PPAR-α ligands.
# Human PPARγ2, human PPARδ and human PPARα were expressed as GST-fusion proteins in E. coli. The full length human cDNA for PPARγ 2 was subcloned into the pGEX-2 T expression vector (Amersham Pharmacia Biotech, Inc.). The full length human cDNAs for PPARδ and PPARα were subcloned into the pGEX-KT expression vector (Amersham Pharmacia Biotech, Inc.). E. coli containing the respective plasmids were propagated, induced, and harvested by centrifugation. The resuspended pellet was broken in a French press and debris removed by centrifugation. Recombinant human PPAR receptors were purified by affinity chromatography on glutathione sepharose. After application to the column, and one wash, receptor was eluted with glutathione. Glycerol (10%) was added to stabilize the receptor and aliquots were stored at −80° C.
# After incubation for ˜16 h at 15° C. with shaking, the assay plates were counted in a Packard Topcount with quench correction.
# [2] = test system: adjuvant-induced arthritis in female Lewis rats
# Experimental: Nine groups of 10 rats each were injected with an emulsion containing 0.5 mg of Mycobacterium butyricum in 0.1 ml of light mineral oil, and a negative control group of 10 rats was not injected with adjuvant. Body weights, primary (injected) and contralateral (non-injected) paw volumes (determined by mercury displacement plethysmography) and lateral radiographs (obtained under Ketamine and Xylazine anesthesia) were determined before (day-1) and at various time points including 21 days following adjuvant injection. The rats were anesthetized with an intramuscular injection of 0.03-0.1 ml of a combination of Ketamine (87 mg/kg) and Xylazine (13 mg/kg) for radiographs and injection of adjuvant. Lateral to medial radiographs were made of both hind paws on days 0 and 21 for using the Faxitron (45 kVp, 30 seconds or 45 kVp, 1 second) and Kodak X-OMAT TL film, and were developed in an automatic processor. […] Specific criteria were used to establish the numerical grade of severity for each radiographic change. The maximum possible score per foot was 26. Compounds or vehicle were administered prophylactically beginning post injection of adjuvant and continuing for 21 days. The Compounds were prepared weekly, refrigerated in the dark until used, and vortex mixed immediately prior to administration. […] The liver, thymus and spleens of all rats were removed and weighed and both hind paws were removed and radiographed.
# Two-factor (‘treatment’ and ‘time’) analysis of variance with repeated measures on ‘time’ were applied to the percent changes for body weight and foot volumes and to the rank-transformed radiographic total scores. A post hoc Dunnett's test was conducted to compare the effect of treatments to vehicle. A one-way analysis of variance was applied to the thymic and spleen weights followed by the Dunnett's test to compare the effect of treatments to vehicle.
# Compounds or vehicle (0.5% Methocel in sterile water) were administered by oral gavage once daily for 21 days following induction of arthritis in female Lewis rats via the sub plantar injection of 0.1 ml of light mineral oil containing 0.5 mg of Mycobacterium butyricum. Control animals were not injected with adjuvant. Body weights were measured 1 day prior to (i.e. day 0) and at 14 and 21 days post induction of arthritis. The data in Table 1 represent the mean increase or decrease in body weight ±1 standard deviation for groups of 9 to 10 animals.
# Compounds or vehicle (0.5% Methocel in sterile water) were administered by oral gavage once daily for 21 days following induction of arthritis in female Lewis rats via the sub plantar injection of 0.1 ml of light mineral oil containing 0.5 mg of Mycobacterium butyricum. Control animals were not injected with adjuvant.
# (§1) Injected foot volumes were measured by mercury displacement plethysmography prior to induction of arthritis, and on days 4, 14 and 21 post induction of arthritis. The data represent the mean increase in foot volume ±1 standard deviation for groups of 9 to 10 animals. The extent of paw swelling in compound-treated animals was compared to the mean of that in the vehicle-treated group, and percentage inhibition was calculated for each dose level of compound.
# as §1, with “Contralateral foot” for “Injected foot”, “prior to,” for “prior to induction of arthritis,”, “and at” for “and on”, “days” for “days 4,”
# […] Data represent the mean weights of organs in mg ±1 standard deviation for groups of 9 to 10 animals.
# Total radiographic scores were derived from examination of lateral radiographs obtained prior to, and on day 21 post induction of arthritis.
# [3] = injected paw, same doses p.o. q.d.
# [4] = weight at necropsy, day of euthanasia 21 (Compound 1, indomethacin) or 15 (Compounds 2-6), mean ± SD
smiles,measurement,setting,value
"CCCc1cc(Oc2ccccc2)ccc1OCCc1cc2cc(CC(=O)O)ccc2[nH]1 [Compound 2, {2-[2-(4-phenoxy-2-propylphenoxy)ethyl]-1H-indol-5-yl}acetic acid]",IC50,[1],15 µM
same,Change in Secondary Foot Volume Day 14-0,"[2]; contralateral paw, p.o. q.d., Compounds 1, 2, 4, 6 30 mg/kg/day, Compound 3 50, Compound 5 100, indomethacin 2, mean ± SD",786 ± 220 µL
same,Secondary Foot Volume % Inhibition Compared to Vehicle Day 14-0,"[2]; contralateral paw, same doses p.o. q.d.",0%
same,Change in Primary Foot Volume Day 4-0,"[2]; injected paw, p.o. q.d., Compounds 1, 2, 4, 6 30 mg/kg/day, Compound 3 50, Compound 5 100, indomethacin 2, mean ± SD",1642 ± 386 µL
same,Primary Foot Volume % Inhibition Compared to Vehicle Day 4-0,[2]; [3],18.6%
same,Primary Foot Volume % Inhibition Compared to Vehicle Day 14-0,[2]; [3],21.3%
same,Change in Primary Foot Volume Day 14-0,"[2]; injected paw, same doses p.o. q.d., mean ± SD",1875 ± 418 µL
same,change in body weight Day 14-0,"[2]; p.o. q.d., Compounds 1, 2, 4, 6 30 mg/kg/day, Compound 3 50, Compound 5 100, indomethacin 2 mg/kg/day, mean ± SD",0.8 ± 7.3**^++ grams
same,prevention of swelling of primary or secondary paws,"[2]; up to day 14, rats then euthanized",failed to prevent swelling of either the primary or secondary paws
same,Spleen,[2]; [4],590.8 ± 82.1 mg
same,Thymus,[2]; [4],168.7 ± 44.6 mg
